According to patent US10980901B2, “Treatment of PMSA expressing cancers” (THE EUROPEAN ATOMIC ENERGY COMMUNITY (EURATOM), REPRESENTED …, priority 2016, dated 2021):

Tests used:
PSMA expressing cancers [1] = experiment: Treatment response monitored by PSA values in blood, patient cohorts; assay type: in vivo, patients; settings: for patients in PSA response / patients in PSA response (percentage): at week-24
Description: 20 Patients were treated 3 times with activities of 100 kBq/kg body weight of Ac-225-PSMA-617 in two month intervals.
Treatment response was monitored by PSA values in blood and with PET/CT (positron emission tomography-computed tomography) with Ga-68-PSMA-HBED-CC (also called Gallium-68-PSMA11) before therapy and after the third therapy.
Experiments have been conducted to compare the efficiency of the Ac-225-radiopharmaceuticals as used in the present invention, such as Ac-225-PSMA-617, with that of non-Ac-225-radiopharmaceuticals comprising the same targeting compound, but chelated e.g. with Lu-177, such as a radionuclide Lu-177-PSMA-617.

[2] = Toxicity monitored by blood sampling and clinical side effects, patient cohorts; assay type: in vivo, patients; settings: patient cohort; for change in thrombocyte or white blood cell count: during therapy; for dysfunction of salivary glands: reported side effect; for tolerability of the treatment: lab tests every 4 weeks, clinical side effects every 8 weeks
Description: Toxicity was monitored by blood sampling.
Hematologic response was evaluated every 4 weeks per lab tests and clinical side effects were monitored every 8 weeks.

[3] = system: metastatic castration-resistant prostate cancer (mCRPC); experiment: Treatment of individual mCRPC patients A and B: PSA level and PSMA PET/CT restaging; assay type: in vivo
Description: Clinical Course of Patient A presented with diffuse red marrow infiltration of mCRPC (this physical condition was considered a contraindication for treatment with β-emitters). Patient A was treated with 3 cycles of 9-10 MBq (100 kBq per kilogram of body weight) of Ac-225-PSMA-617 at bimonthly intervals.
(§1) Patient B was initially treated with Lu-177-PSMA-617 (7.4 GBq per cycle), which was offered as salvage therapy. The initial PSA level was 294 ng/ml. […] Therapy was changed to Ac-225-PSMA-617, and the patient received 3 cycles of 6.4 MBq (100 kBq per kilogram of body weight) at bimonthly intervals.

[4] = Laboratory test follow-up and side effects of individual mCRPC patients A and B; assay type: in vivo
From the text: After each cycle, the blood cell count and alkaline phosphatase level were checked every 2 week. The platelet level never dropped below 100/n1 (grade 1 according to the Common Terminology Criteria for Adverse Events, version 4.0), the total white blood cell count never dropped below 2.5/n1 (grade 1), and the hemoglobin level never dropped below 9.5 g/dl (grade 2) (FIG. 13A). […] A concordant decline in PSA level and alkaline phosphatase level (FIG. 13B) further underlined the excellent treatment response.
as §1

PSMA expressing cancers [5] = experiment: Treatment response monitored by PSA values in blood, patient cohorts; assay type: in vivo, patients; settings: comparative example
[6] = eight weeks after the first treatment cycle, 20 patients, 100 kBq/kg body weight
[7] = sixteen weeks after the first treatment cycle, 20 patients, 100 kBq/kg body weight
[8] = twenty-four weeks after the first treatment cycle, 20 patients, 100 kBq/kg body weight
[9] = patient A, after additional 6 MBq consolidation therapy
[10] = patient A, checked every 2 week after each cycle
[11] = 30 patients, eight weeks after the first treatment cycle

Structure (SMILES): O=C(O)CCC(NC(=O)NC(CCCCNC(=O)C(Cc1cccc2ccccc12)NC(=O)C1CCC(CNC(=O)CN2CCN(CC(=O)O)CCN(CC(=O)O)CCN(CC(=O)O)CC2)CC1)C(=O)O)C(=O)O (stereo not shown) [Ac-225-PSMA-617, metal not drawn]
- patients in PSA response (PSMA expressing cancers [1]): 15/28
- patients in PSA response (percentage) (PSMA expressing cancers [1]): 54%
- patients with decrease in PSA >25% (PSMA expressing cancers [1]; [6]): 17 patients
- patients with decrease in PSA >50% (PSMA expressing cancers [1]; [6]): 12 patients
- patients presenting a decrease in PSA (PSMA expressing cancers [1]; eight weeks after the first treatment cycle, 20 patients, 100 kBq/kg body weight, 3 times in two month intervals): 19/20
- patients presenting a decrease in PSA (PSMA expressing cancers [1]; [7]): 15/20
- patients with decrease in PSA >50% (PSMA expressing cancers [1]; [7]): 14 patients
- patients presenting a decrease in PSA (PSMA expressing cancers [1]; [8]): 15/20
- patients with decrease in PSA >50% (PSMA expressing cancers [1]; [8]): 12 patients
- change in thrombocyte or white blood cell count [2]: no significant change
- dysfunction of salivary glands [2]: Several patients reported dysfunction of salivary glands
- tolerability of the treatment [2]: well tolerated
- tumor markers (PSA, alkaline phosphatase) ([3]; patient A, FIG. 13B): Decline of tumor markers to none measurable or reference range
- PSA level [3, 9]: less than 0.1 ng/ml
- imaging response [3, 9]: complete imaging response
- previously PSMA-positive lesions on PSMA PET/CT ([3]; patient A, two months after 3 cycles of 9-10 MBq (100 kBq/kg) at bimonthly intervals): visually disappeared
- PSA level ([3]; patient A, two months after 3 cycles of 9-10 MBq, dropped from more than 3,000 ng/ml): 0.26 ng/mL
- restaging based on PSMA PET/CT ([3]; patient B, after 2 cycles of 6.4 MBq (100 kBq/kg) at bimonthly intervals, after failed Lu-177-PSMA-617): partial response
- restaging based on PSMA PET/CT ([3]; patient B, after 3 cycles of 6.4 MBq (100 kBq/kg) at bimonthly intervals): complete remission
- PSA level ([3]; patient B, after 3 cycles of 6.4 MBq, below the measurable level): < 0.1 ng/mL
- restaging on 68-Ga-PSMA-11 PET/CT ([3]; patient B, after second and third cycles, FIG. 14C, 14D): impressive response
- clinically reported side effect ([4]; patient A): Moderate but enduring dysfunction of salivary glands
- hemoglobin level, CTCAE grade ([4]; patient A): grade 2
- platelet level, grade according to Common Terminology Criteria for Adverse Events, version 4.0 ([4]; patient A): grade 1
- total white blood cell count, CTCAE grade ([4]; patient A): grade 1
- hematologic toxicity (blood cell count) ([4]; patient A, FIG. 13A): moderate hematologic toxicity
- hemoglobin level (lowest) [4, 10]: ≥ 9.5 g/dL
- platelet level (lowest) [4, 10]: ≥ 100 /n1
- total white blood cell count (lowest) [4, 10]: ≥ 2.5 /n1
- reported side effect ([4]; patient B): severe dysfunction of salivary glands
- hematologic toxicity (laboratory tests) ([4]; patient B, 3 cycles of 6.4 MBq): no relevant hematologic toxicity

Structure (SMILES): O=C([O-])CN1CCN(CC(=O)[O-])CCN(CC(=O)NCC2CCC(C(=O)N[C@@H](Cc3ccc4ccccc4c3)C(=O)NCCCC[C@H](NC(=O)N[C@@H](CCC(=O)O)C(=O)O)C(=O)O)CC2)CCN(CC(=O)[O-])CC1.[177Lu+3] (stereo partly shown) [Lu-177-PSMA-617, reference compound]
- patients in PSA response (PSMA expressing cancers [1]): 9/30
- patients in PSA response (percentage) (PSMA expressing cancers [1]): 30%
- response rate in comparison to Ac-225-PSMA-617 group (PSMA expressing cancers [1]; comparison of treated groups): lower response rate
- change in thrombocyte or white blood cell count [2]: no significant change
- dysfunction of salivary glands [2]: Mild moderate dysfunction of salivary glands
- tolerability of the treatment [2]: well tolerated
- lesions on PSMA PET/CT, restaging ([3]; patient B, after 2 cycles of Lu-177-PSMA-617): tumor progression
- PSA level ([3]; patient B, after cycle 2, 7.4 GBq per cycle, initial PSA level 294 ng/ml): 419 ng/mL
- patients presenting a decrease in PSA (PSMA expressing cancers [5]; [11]): 21/30
- patients with decrease in PSA >50% (PSMA expressing cancers [5]; [11]): 16 patients
- patients presenting a decrease in PSA (PSMA expressing cancers [5]; 30 patients, twenty-four weeks after the first treatment cycle, some patients dropped out): 9/30
- patients with decrease in PSA >50% among those with PSA decrease (PSMA expressing cancers [5]; twenty-four weeks after the first treatment cycle): all of them
